Tests used:
CF-1-Mäuse [1] = assay: Rotating rod test (Rotierstabtest), mice observed 30 min after dosing; format: in vivo
Description: Dieser Test ist eine Modifikation der von N.W. Dunham und T.S. Miya in J.A. Ph. A. Sci. Ed. 46, 208 (1957) beschriebenen Methode. CF-1-Mäuse, welche aufgrund ihrer Fähigkeit ausgewählt worden sind, sich während 2 Minuten auf einem Rotierstab von 30 mm Durchmesser und 16 Umdrehungen pro Minute halten zu können, werden verwendet. Gruppen von je 8 Mäusen werden 30 Minuten nach Verabreichung der Testverbindung auf den Rotierstab verbracht und während 2 Minuten beobachtet. Diejenigen Mäuse, die sich nicht während der vollen 2 Minuten auf dem Rotierstab halten können, werden als durch die Testverbindung beeinflusst qualifiziert. Die Anzahl derjenigen Mäuse, die sich auf dem Rotierstab nicht halten können, wird in Prozent der Gesamtanzahl Mäuse in jeder Gruppe bei den verschiedenen Dosen angegeben. Diese Prozentwerte werden gegen die Dosis auf logarithmischem Papier aufgezeichnet, und der ED5o-Wert wird nach der Methode von L.C. Miller und M.L. Tainter in Proc. Soc. Exp. Biol. Med. 57, 26 (1944) ermittelt.
Der Zweck des vorliegenden Tests ist die Ueberprüfung von chemischen Verbindungen im Hinblick auf ihre Wirkung auf den Muskeltonus und/oder die muskuläre Koordination. speziell diejenige von Muskelrelaxantien, Sedativa oder Stimulantien.

CF-1-Mäuse [2] = assay: Intravenous antimetrazol test (Intravenöser Antimetrazoltest), protection against Metrazol convulsions; format: in vivo; details: Mus musculus, 1 h, oral dosing, Metrazol 70 mg/kg i.v. one hour later, 50% of animals without convulsions
Protocol: Männliche CF-1-Mäuse, welche 45-54 Tage alt sind und während ungefähr 24 Stunden vom Futter ferngehalten wurden, werden in diesem Test eingesetzt. Die Testverbindung, dispergiert in 5% Akazienöl, wird 3 Mäusen oral verabreicht und zwar bei einer Dosis, die 1/10 der im TSP-Test ermittelten Lethaldosis entspricht. Eine Stunde später wird Metrazol intravenös verabreicht (70 mg/kg: konvulsive Dosis 100 mg/kg) und die Versuchstiere während 30 Sekunden beobachtet, ob ein Schutz gegenüber den Krampfanfällen eintritt. Falls die Testverbindung oral aktiv ist, werden pro Dosis 3 Versuchstiere eingesetzt. Die Dosis, bei der 50% der Versuchstiere keinerlei Krampfanfälle erleiden, wird als ED50-Wert bezeichnet.
Gemacht Messungen: Die Anzahl der Versuchstiere, welche gegen Krampfanfälle geschützt sind.
Berechnun^qen: Falls die Prüfsubstanz aktiv ist und 3 Mäuse pro Dosis eingesetzt werden, wird der approximative ED -Wert nach der Methode von Miller und Tainter (Proc. Soc. Exp. Biol. med. 57:261 (1944)) berechnet. Falls 6 oder mehr Mäuse pro Dosis eingesetzt werden, wird der ED50--Wert sowie der 95%ige Vertrauensbereich mit Hilfe eines Computerprogramms berechnet, welches auf der Methode von D.J. Finney (Probit Analysis, Cambridge University Press. Cambridge, England, 1971) beruht.
Dieser Test eignet sich zur Evaluation von Antikonvulsiva und ist für eine Aussage bezüglich der anxiolytischen Wirkung relevant.

[3] = Mus musculus, po, 0.5 h, compounds of the invention, mice unable to stay 2 min on the rotating rod, 30 min after administration, read-out: ED50
[4] = Mus musculus, po, 0.5 h, standard compounds, mice unable to stay 2 min on the rotating rod, 30 min after administration, read-out: ED50

Row | Compound | ED50 (CF-1-Mäuse [1]; [3]) | ED50 (CF-1-Mäuse [2]; compounds of the invention) | further results
1 | N-Acetyl-6-(2-chlorphenyl)-4H-imidazo-[1,5-a][1,4]benzodiazepin-3-carboxamid-acetylester | – | – | ED50 (CF-1-Mäuse [1]; compounds of the invention, mice unable to stay 2 min on the rotating rod, 30 min after administration): >200 mg/kg p.o.
2 | Cc1nc(C(N)=O)c2n1-c1ccccc1C(c1ccccc1Cl)=NC2 [Beispiel 63, 6-(2-Chlorphenyl)-1-methyl-4H-imidazo[1,5-a][1,4]benzodiazepin-3-carboxamid] | > 200 mg/kg | 5.1 mg/kg | –
3 | NC(=O)c1ncn2c1CN=C(c1ccccc1Cl)c1ccc(Cl)cc1-2 [Beispiel 31, 9-Chlor-6-(2-chlorphenyl)-4H-imidazo[1,5-a][1,4]benzodiazepin-3-carboxamid] | > 200 mg/kg | 0.97 mg/kg | –
4 | CC(=O)NC(=O)c1ncn2c1CN=C(c1ccccc1Cl)c1ccccc1-2 [Beispiel 68, N-Acetyl-6-(2-chlorphenyl)-4H-imidazo[1,5-a][1,4]benzodiazepin-3-carboxamid] | – | 1.3 mg/kg | –
5 | NC(=O)c1ncn2c1C(O)N=C(c1ccccc1Cl)c1ccccc1-2 (centres unmarked) [Beispiel 72, 6-(2-Chlorphenyl)-4-hydroxy-4H-imidazo[1,5-a][1,4]benzodiazepin-3-carboxamid] | > 200 mg/kg | 0.86 mg/kg | –
6 | CNC1=Nc2ccc(Cl)cc2C(c2ccccc2)=[N+]([O-])C1 [Chlordiazepoxyd, reference compound] | – | – | ED50 (CF-1-Mäuse [1]; [4]): 33.5 mg/kg; ED50 (CF-1-Mäuse [2]; standard compounds): 3.9 mg/kg
7 | CN(C)CCCN1c2ccccc2Sc2ccc(Cl)cc21 [Chlorpromazin, reference compound] | – | – | ED50 (CF-1-Mäuse [1]; [4]): 10 mg/kg
8 | NC(=O)c1ncn2c1CN=C(c1ccccc1Cl)c1ccccc1-2 [Beispiel 27, 6-(2-Chlorphenyl)-4H-imidazo[1,5-a][1,4]benzodiazepin-3-carboxamid] | > 200 mg/kg | 7.4 mg/kg | –
9 | CN1C(=O)CN=C(c2ccccc2)c2cc(Cl)ccc21 [Diazepam, reference compound] | – | – | ED50 (CF-1-Mäuse [1]; Mus musculus, po, 0.5 h): 7.4 mg/kg; ED50 (CF-1-Mäuse [2]; standard compounds): 1 mg/kg
10 | CCC1(c2ccccc2)C(=O)NC(=O)NC1=O [Natriumphenobarbital, reference compound] | – | – | ED50 (CF-1-Mäuse [2]; standard compounds): 19 mg/kg
11 | COc1ccc2c(c1)N(C[C@H](C)CN(C)C)c1ccccc1S2 [Methotrimeprazin, reference compound] | – | – | ED50 (CF-1-Mäuse [1]; [4]): 3.8 mg/kg

From patent EP0135770A2, “Imidazobenzodiazepine derivatives, process for their preparation and medicaments containing them” (F. HOFFMANN-LA ROCHE & CO. Aktiengesellschaft, priority 1983, dated 1985)
